Measurements taken from patent US7176261B2, “Angiotensin-(1-7) eluting polymer-coated medical device to reduce restenosis and improve endothelial cell function” (Medtronic, Inc., priority 2004, dated 2007).
Marks after values point to notes of the source that are not given here.

Assays:
[1] = system: rats with uncoated stents implanted in the abdominal aorta; assay: Angiotensin-(1-7) pump study in rat aorta model (uncoated stents, micropump infusion); type: in vivo
Method: The effects of Ang-(1-7) on restenosis were studied in rats with uncoated stents implanted in the abdominal aorta with Ang-(1-7) infused by implantable micro pump. Twelve rats per group were implanted with stents and micropumps containing one of three infusion regimens for three weeks. Control rats received saline infusions and the Ang-(1-7) groups received infusion of Ang-(1-7) at 10 μg/kg/hr or 24 μg/kg/hr.
The rats receiving 24 μg/kg/hr, however, scored lower in neointimal level and percentage stenosis (Table 1 and FIG. 7). A 27% reduction in neointimal area was seen between the control rats and those receiving 24 μg/kg/hr Ang-(1-7). Ang-(1-7) has a clear beneficial effect on the restenosis rate.

[2] = system: smooth muscle cell proliferation; settings: intravenous infusion; cited from earlier work
ACE = target: T1, ACE (Homo sapiens, UniProt P12821); settings: after six months of treatment, more than 2,000 patients; cited from earlier work
T1 construct: host or cells: patients (in vivo, endogenous enzyme)
T1 sequence (P12821 30-1306): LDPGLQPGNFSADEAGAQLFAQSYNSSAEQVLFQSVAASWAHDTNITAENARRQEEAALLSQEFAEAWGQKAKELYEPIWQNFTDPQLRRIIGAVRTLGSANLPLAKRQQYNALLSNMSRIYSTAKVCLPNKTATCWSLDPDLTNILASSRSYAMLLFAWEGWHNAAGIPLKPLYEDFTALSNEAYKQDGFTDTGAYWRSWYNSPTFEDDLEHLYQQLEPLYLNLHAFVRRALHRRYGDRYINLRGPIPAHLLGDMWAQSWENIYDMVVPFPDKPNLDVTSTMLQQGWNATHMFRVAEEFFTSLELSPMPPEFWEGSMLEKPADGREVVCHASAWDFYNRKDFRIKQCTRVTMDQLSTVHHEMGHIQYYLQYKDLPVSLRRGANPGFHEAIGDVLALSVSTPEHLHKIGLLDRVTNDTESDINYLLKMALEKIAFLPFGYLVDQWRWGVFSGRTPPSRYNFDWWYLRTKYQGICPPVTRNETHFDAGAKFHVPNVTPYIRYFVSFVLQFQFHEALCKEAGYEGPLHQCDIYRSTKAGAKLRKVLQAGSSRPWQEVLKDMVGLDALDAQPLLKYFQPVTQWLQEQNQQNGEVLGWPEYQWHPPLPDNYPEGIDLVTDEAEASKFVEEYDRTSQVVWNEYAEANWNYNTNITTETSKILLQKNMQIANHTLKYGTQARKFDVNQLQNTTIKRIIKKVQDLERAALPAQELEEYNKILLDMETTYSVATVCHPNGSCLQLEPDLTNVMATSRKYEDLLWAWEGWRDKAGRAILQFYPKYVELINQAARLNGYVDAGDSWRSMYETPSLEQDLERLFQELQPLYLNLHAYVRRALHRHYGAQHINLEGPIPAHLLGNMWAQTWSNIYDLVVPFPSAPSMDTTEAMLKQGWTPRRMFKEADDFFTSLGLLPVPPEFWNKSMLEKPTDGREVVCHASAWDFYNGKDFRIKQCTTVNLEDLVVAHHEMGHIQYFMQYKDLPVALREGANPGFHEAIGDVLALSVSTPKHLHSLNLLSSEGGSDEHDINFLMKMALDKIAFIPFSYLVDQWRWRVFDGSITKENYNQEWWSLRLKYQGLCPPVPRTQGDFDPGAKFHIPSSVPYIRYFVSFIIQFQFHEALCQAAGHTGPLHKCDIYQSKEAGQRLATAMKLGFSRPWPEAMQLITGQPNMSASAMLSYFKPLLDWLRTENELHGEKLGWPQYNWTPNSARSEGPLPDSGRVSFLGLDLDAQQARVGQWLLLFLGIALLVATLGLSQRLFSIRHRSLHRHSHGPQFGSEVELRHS

[3] = Ang-(1-7) infusion 24 μg/kg/hr for three weeks

Compound	difference compared to the control group in any of the parameters measured ([1]; 10 μg/kg/hr infusion)	reduction in neointimal area vs control rats ([1]; 24 μg/kg/hr infusion)	endothelial function as measured in the thoracic aorta position, proximal from the stent ([1]; Ang-(1-7) infusion)	Media Area [1, 3]	Neointimal Thickness [1, 3]	Percentage Stenosis ([1]; Ang-(1-7) infusion 24 μg/kg/hr for three weeks, p = 0.016 vs. control)	Neointimal area ([1]; Ang-(1-7) infusion 24 μg/kg/hr for three weeks, p = 0.035 vs. control)	smooth muscle cell proliferation associated with balloon-catheter injury [2]	incidence of restenosis vs placebo (ACE)
Asp Arg Val Tyr lie His Pro (DRVYIHP; listed as Homo sapiens) [Ang-(1-7)]	did not show any significant difference	27%	improved endothelial function	0.40 ± 0.05 mm^2	111 ± 8 µm	10.4 ± 1.0 %	0.51 ± 0.05* mm^2	inhibited	
CCOC(=O)[C@H](CCc1ccccc1)N[C@H]1CCCN2CCC[C@@H](C(=O)O)N2C1=O [cilazapril]									no significant differences
